Read-outs that look alike come from different tables or passages of the source. Marks after values point to notes of the source that are not given here.
What was measured:
[1] = test system: MBP-antiABA-scFv; assay: SPR affinity in solution (competitive titration) of test compounds for the scFv; format: binding, mouse; details: for Cross-reactivity MBP-aABA-scFv: from KA relative to (+)-ABA = 100%; for Affinity in solution, MBP-aABA-scFv, KA / Kd: scFv 25 nM, 1 hour at 25°C; for Kd: read-out: Affinity in solution, MBP-aABA-scFv, KD
Experimental: All heterogeneous phase (surface) techniques can be subject to artefacts introduced by ligand immobilisation or e.g. biotinylation of the free ligand. […] The equilibrium mixtures (1 hour at 25°C) were injected over an SA chip surface saturated with b-PEG-ABA at high ligand density, and the initial binding rate of free scFv was measured. The concentration of free scFv from each equilibrium mixture was determined from a calibration curve (S6A Fig) and plotted against the concentration of free (+)-ABA. Data points were fitted to the solution affinity model in BIAevaluation (S5B Fig). […] Thus, the kinetics of the fusion protein have been described with confidence. Next these were compared with the characteristics of both cleaved, free scFv and with the parental monoclonal immunoglobulin.
The selectivity of the scFv for (+)-ABA was tested by determining the affinity in solution for structurally or physiologically related compounds. […] The concentration of free scFv in the equilibrium mixtures was determined and plotted against concentration of competitor. Affinity was determined by fitting the data points to a solution affinity model (Fig 4). The KA value was determined for each compound, and then percentage cross-reactivity was calculated by expressing each KA value relative to the KA for (+)-ABA. Values were compared to literature data for the parental monoclonal antibody (Table 3).
Fig 4 Cross-reactivity of the anti-ABA-scFv. […] The concentration of free scFv in the equilibrium mixtures was plotted against the concentration of test compound. The structures of each competitor are shown framed in the same colours as the data in the dose graph. There is no box for the racemic mix. The colour code for each compound is shown on the left of the plot.
Figure S6. Affinity in solution. (a) A calibration curve was generated by injecting known concentrations of free MBP-antiABA-scFv (0.1 nM – 50 nM) over the surface of a SA sensor chip saturated with b -PEG-ABA, plotting the initial binding rate against concentration and fitting the data points to a 4 -parameter equation. (b) MBP- […]
1 nM, 5 nM, 10 nM, 50 nM, 100 nM, 200 nM, 500 nM), and the mixtures incubated to equilibrium (1 hour at 25°C). The concentration of free MBP -antiABA-scFv in the equilibrium mixtures was then determined from the calibration curve. The concentration of free MBP -antiABA-scFv in the equilibrium mixtures was plotted against (+)-ABA concentration and the data points were fitted to a solution affinity […]
(1 picture or pasted object on this page, not shown here)

[2] = test system: mAb 15-I-C5; details: cited from earlier work
[3] = no reference given; cited from earlier work
[4] = radiolabel displacement curves, 50% displacement, ref Walker-Simmons et al., 1991
[5] = radiolabel displacement curves, 50% displacement, ref Phytodetek manual m100.2, Agdia Inc.

Row | Kd [1] [µM] | Structure (SMILES) | Cross-reactivity MBP-aABA-scFv [1] [%] | Affinity in solution, MBP-aABA-scFv, KA [1] [M⁻¹] | Cross-reactivity mAb 15-I-C5 [2, 5] | also measured
1 | 1.09 | CC(C=CC1C(C)=CC(=O)CC1(C)C)=CC(=O)O (mixture of isomers) [2-cis-(R,S)-(±)-1’-deoxy-ABA] | 0.309 | 917000 |  | Cross-reactivity MBP-aABA-scFv ([1]; listed as 1ʹ-deoxy-ABA): 0.3%; affinity, fold lower than that for (+)-ABA ([1]; scFv): over 100 fold
2 |  | CC1=CC(=O)CC(C)(C)[C@@]1(O)/C=C/C(C)=C/C(=O)O [2-trans-(S)-(+)-ABA] |  |  | 0% | Cross-reactivity mAb 15-I-C5 [2, 4]: 0.98%
3 |  | CC1=CC(=O)CC(C)(C)C1(O)/C=C/C(C)=C\C(=O)O (centres unmarked) [ABA, abscisic acid] |  |  |  | pKa [3]: 4.75
4 | 17100 | CC(C)=CCC/C(C)=C/CC/C(C)=C/CO [All-trans-Farnesol] | 0.00002 | 58.4 | 0 ^c % | Cross-reactivity MBP-aABA-scFv ([1]; listed as farnesol): lower than 10^−4%
5 | 2.17 | CC(C=CC1(O)C2(C)COC1(C)CC(O)C2)=CC(=O)O (centres unmarked) [Dihydrophaseic acid] | 0.156 | 462000 | <0.1 ^c % | Cross-reactivity MBP-aABA-scFv ([1]; listed as dihydrophaseic acid): 0.16%; affinity, fold lower than that for (+)-ABA ([1]; scFv): over 100 fold
6 | 32800 | C=C1C[C@]23C[C@@]1(O)CC[C@H]2[C@@]12C=C[C@H](O)[C@@](C)(C(=O)O1)[C@H]2[C@@H]3C(=O)O [Gibberellic acid] | 0.00001 | 30.4 |  | Cross-reactivity MBP-aABA-scFv ([1]; listed as gibberellic acid): lower than 10^−4%
7 | 7230 | O=C(O)Cc1c[nH]c2ccccc12 [Indole-3-acetic acid] | 0.00005 | 138 |  | Cross-reactivity MBP-aABA-scFv ([1]; listed as auxin): lower than 10^−4%
8 | 11.3 | CC(=C/C(=O)O)/C=C/[C@]1(O)[C@@]2(C)CO[C@]1(C)CC(=O)C2 [Phaseic acid] | 0.029 | 88200 | <0.1 ^c % | Cross-reactivity MBP-aABA-scFv ([1]; listed as phaseic acid): 0.03%; affinity, fold lower than that for (+)-ABA ([1]; scFv): over 100 fold
9 | 1620 | CC(C=CC12OC1(C)CC(O)CC2(C)C)=CC=O (centres unmarked) [Xanthoxin] | 0.0002 | 617 | 0 ^c % | Cross-reactivity MBP-aABA-scFv ([1]; listed as xanthoxin): lower than 10^−4%

Row | Structure (SMILES) | Kd [1] [µM] | Cross-reactivity MBP-aABA-scFv [1] [%] | Affinity in solution, MBP-aABA-scFv, KA [1] [M⁻¹] | Cross-reactivity mAb 15-I-C5 [2, 5] | also measured
10 | CC(C=CC1(O)C(C)=CC(=O)CC1(C)C)=CC(=O)O (racemic) [2-cis-(R,S)-(±)-ABA] | 0.00761 | 44.25 | 1.31e+08 |  | Cross-reactivity mAb 15-I-C5 [2, 4]: 49.4 ^d %; Cross-reactivity MBP-aABA-scFv ([1]; listed as (±)-ABA): 44.3%
11 | NCCCCC(N)C(=O)O (racemic) [D,L-Lysine] | 6120 | 0.00006 | 163 |  | Cross-reactivity MBP-aABA-scFv ([1]; listed as lysine): lower than 10^−4%
12 | CC1=CC(=O)CC(C)(C)[C@@]1(O)/C=C/C(C)=C\C(=O)O [2-cis-(S)-(+)-ABA] | 0.00337 | 100 | 2.96e+08 |  | Cross-reactivity mAb 15-I-C5 ([2]; reference value, determined by other investigators, no source marked): 100%; affinity relative to the inactive (-)-ABA ([1]; scFv): three orders of magnitude higher
13 | O=C(O)c1ccccc1 [Benzoic acid] | 10900 | 0.00003 | 91.7 |  | Cross-reactivity MBP-aABA-scFv ([1]; listed as benzoic acid): lower than 10^−4%
